The source of these data is patent publication US20230061201A1, “COMPOSITION FOR PREVENTING OR TREATING CHRONIC OBSTRUCTIVE PULMONARYDISEASE COMPRISING REGORAFENIB AS ACTIVE INGREDIENT” (Chungbuk National University Industry-Academic Cooperation …, priority 2021, published 2023).

Common to all, as to type: in vivo, C57BL/6 mice
The subject of test [1] is mouse animal model with emphysema induced by porcine pancreatic elastase (PPE). Put plainly: Immune cells in bronchoalveolar lavage fluid of PPE-induced emphysema mice. To be noted: BAL fluid day 4. The text has this: The present inventors performed an experiment to determine whether regorafenib has activity capable of treating chronic obstructive pulmonary disease. The initial response induced by PPE (porcine pancreatic elastase) representatively includes immune responses that occur in damaged lung tissue. The activated immune response promotes the proliferation of various immune cells and the secretion of various inflammatory mediators. Specifically, the overall number of immune cells increases with an increase in individual immune cells involved in the immune response. In particular, an increase in the numbers of macrophages, lymphocytes, eosinophils, and neutrophils is observed. The increase in the number of these cells can be confirmed through a bronchoalveolar lavage (BAL) fluid test.
Therefore, in the present invention, mice with chronic obstructive pulmonary disease, particularly emphysema, in which alveolar damage was induced by reducing elastin content using PPE, were prepared and then treated with regorafenib to thus analyze whether chronic obstructive pulmonary disease was ameliorated. Specifically, 6-week-old C57BL/6 mice were purchased and acclimatized for one week. Thereafter, the acclimatized 7-week-old mice (average 25 g) were orally administered with 200 µl of regorafenib (SelleckChem, BAY 73-4506) at a concentration of 5 mg/kg. […] The stained slide was analyzed and quantified using a microscope.
According to the method described above, a mouse animal model of chronic obstructive pulmonary disease was prepared by administering the mouse lungs with 5U of PPE, and in order to verify whether the immune response was modulated, one day before administration of PPE and on days 2 and 3 after administration of PPE, regorafenib (5 mg/kg) was administered thereto, and on day 4, bronchoalveolar lavage fluid was obtained and the immune cells therein were stained to thus quantitatively analyze the type of immune cells and the number of individual cells. […]

Test [2] shares this test system. Description: Alveolar size (mean linear intercept, Lm) in PPE-induced emphysema mice. Particulars: regorafenib 5 mg/kg oral for one week from two weeks after PPE 5U nasal; lungs on week 3, H&E. The text has this: One of the pathological indicators of chronic obstructive pulmonary disease is changed alveolar size. Changes in the alveolar size can be analyzed by quantifying the mean linear intercept (Lm) value, representing the average distance between the alveolar walls, in a microscopic field of view. When chronic obstructive pulmonary disease is induced, this value increases, indicating an increase in the alveolar size.
Therefore, the present inventors analyzed whether it is possible to alleviate changes in lung structure by measuring the change in Lm value due to treatment with regorafenib in a mouse animal model with emphysema, a chronic obstructive pulmonary disease, prepared over three weeks through administration of PPE (FIG. 2A).
Specifically, 6-week-old C57BL/6 mice were acclimatized for one week, after which the acclimatized 7-week-old mice (average 25 g) were subjected to nasal administration with saline and PPE [elastase from porcine pancreas] (EPC, EC134) at a concentration of 5U. […] The prepared block was cut using a sectioning machine, attached to a slide, subjected to H&E staining, and then quantified by measuring the Lm value based on microscopic images.

Test [3] has the same test system. Put plainly: Lung function (flexiVent) in PPE-induced emphysema mice. To be noted: regorafenib 5 mg/kg oral for one week from two weeks after PPE 5U nasal; flexiVent on week 3. The text has this:
In addition, the present inventors performed an experiment to determine whether regorafenib is able to restore lost function of damaged lungs in order to confirm whether regorafenib is able to treat chronic obstructive pulmonary disease.
Specifically, 6-week-old C57BL/6 mice were purchased and acclimatized for one week, after which the acclimatized 7-week-old mice (average 25 g) were subjected to nasal administration with saline and PPE [elastase from porcine pancreas] (EPC, EC134) at a concentration of 5U. Two weeks after administration, the mice were orally administered with 200 µl of regorafenib (SelleckChem, BAY 73-4506) at a concentration of 5 mg/kg for one week. Then, the mice were anesthetized using 300 µl of anesthetic on week 3, after which the lung function of each mouse was measured using a flexiVent (system for measuring the function of lungs) and quantified by subtracting the error value therefrom.

Take `CNC(=O)c1cc(Oc2ccc(NC(=O)Nc3ccc(Cl)c(C(F)(F)F)c3)c(F)c2)ccn1` [regorafenib]: in test [1] (regorafenib 5 mg/kg oral), the numbers of eosinophils entry was “significantly decreased” and the numbers of neutrophils result is “significantly decreased”. For the same molecule, the “decrease of the number of immune cells increased due to PPE” value in test [1] (regorafenib 5 mg/kg oral one day before and on days 2 and 3 after PPE 5U nasal) was “about 50%”. Further, the “decrease of Lm value compared to the PPE treatment group” value in test [2] is “about 50%”. Also, in test [3], the lung function indicators entry is “restored”.
